Results reported in US20070142397A2, “PHENYPIPERAZINE DERIVATIVES WITH A COMBINATION OF PARTIAL DOPAMINE-D2 RECEPTOR AGONISM AND SEROTONIN REUPTAKE INHIBITION” (SOLVAY PHARMECEUTICALS B.V., priority 2004, published 2007).
Counter-ions that a name gives are not always drawn. Like-named read-outs stand apart in the source and are kept apart here.

Columns and labels:
dopamine-D2 receptors = target: T1, dopamine-D2 receptors (Rattus norvegicus, UniProt P61169); experiment: In vitro affinity for dopamine-D2 receptors ([3H]-spiroperidol receptor binding assay, Creese et al.)
T1 construct: labels dopamine receptors in rat pituitary and brain; from tissue; host or cells: rat brain / pituitary membranes (from the title of the cited method)
Procedure: In Vitro Affinity for Dopamine-D2 Receptors
Affinity of the compounds for dopamine-D2 receptors was determined using the receptor binding assay described by I. Creese, R. Schneider and S. H. Snyder: “[^3H]-Spiroperidol labels dopamine receptors in rat pituitary and brain”, Eur. J. Pharmacol., 46, 377-381, 1977.
(§1) The affinity of the compounds of the invention for dopamine-D2 receptors and serotonine reuptake sites was determined as described above. From the binding affinity measured for a given compound of formula (1), one can estimate a theoretical lowest effective dose. At a concentration of the compound equal to twice the measured Ki-value, 100% of the receptors likely will be occupied by the compound. Converting that concentration to mg of compound per kg of patient yields a theoretical lowest effective dose, assuming ideal bioavailability. Pharmacokinetic, pharmacodynamic, and other considerations may alter the dose actually administered to a higher or lower value. The dosage expediently administered is 0.001-1000 mg/kg, preferably 0.1-100 mg/kg of patient's bodyweight.

serotonin reuptake sites = target: T2, serotonin reuptake sites (Rattus norvegicus, UniProt P31652); experiment: In vitro affinity for serotonin reuptake sites ([3H]-paroxetine binding assay, Habert et al.)
T2 construct: from tissue; host or cells: rat cortical membranes (from the title of the cited method)
Procedure: In Vitro Affinity for Serotonin Reuptake Sites
Affinity of the compounds for serotonin reuptake sites was determined using the receptor binding assay described by E. Habert et al.,: “Characterisation of [^3H]-paroxetine binding to rat cortical membranes”, Eur. J. Pharmacol., 118, 107-114, 1985.
as §1

[1] = target: T3, Human dopamine D2,L receptors (Homo sapiens, UniProt P14416); experiment: Inhibition of forskolin-induced [3H]-cAMP accumulation in CHO-K1 cells; assay type: cell-based; details: Cloned human dopamine D2,L receptors, full agonist ε=1, full antagonist ε=0
T3 construct: host or cells: CHO-K1
Procedure: Inhibition of Forskolin-Induced [^3H]-cAMP Accumulation
The in vitro functional activity at dopamine-D2 receptors, including the intrinsic activity (ε) of the compounds of the invention was measured by their ability to inhibit forskolin-induced [^3H]-cAMP accumulation.
Human dopamine D2,L receptors were Cloned in fibroblast cell line CHO-K1 cells and obtained from Dr. Grandy, Vollum Institute, Portland, Oreg., USA. CHO cells were grown in a Dulbecco's modified Eagle's medium (DMEM) culture medium, supplemented with 10% heat-inactivated fetal calf serum, 2 mM glutamine, 1 mM pyruvate, 5000 units/ml penicillin, 5000 μg/ml streptomycin and 200 μg/ml G-418 at 37° C. in 93% air/7% CO2. For incubation with test compounds, confluent cultures grown in 24 wells plates were used. Each condition or substance was routinely tested in quadruplicate. Cells were loaded with 1 μci [^3H]-adenine in 0.5 ml medium/well. After 2 hours, cultures were washed with 0.5 ml PBS containing 1 mM of the phospho-diesterase inhibitor isobutylmethylxanthine (IBMX) and incubated for 20 min with 0.5 ml PBS containing 1 mM IBMX and forskolin with or without test compound. After aspiration the reaction was stopped with 1 ml trichloroacetic acid 5% (w/v). […] 0.8 ml Extract was passed over Dowex (50WX-4 200-400 mesh) and aluminumoxide columns, eluted with water and 0.1M imidazole (pH=7.5). Eluates were mixed with 7 ml Insta-gel and radioactivity was counted with a liquid scintillation counter. The conversion of [^3H]-ATP into [^3H]-cAMP was expressed as the ratio in percentage radioactivity in the cAMP fraction as compared to combined radioactivity in both cAMP and ATP fractions, and basal activity was subtracted to correct for spontaneous activity.
Test compounds were obtained as 10 mM stock solutions in 100% DMSO, and diluted in PBS/IBMX to final concentrations. Typically, compounds were used in concentrations that ranged from 10^−10M to 10^−5M. From quadruplicate data counts, the mean was taken as an estimate for drug-induced, receptor-mediated effects at specified second messenger accumulation, expressed as percentage of control values (forskolin-stimulated cAMP accumulation, subtracted by basal activity). By using the non-linear curve-fitting program INPLOT or the Excel-add-in XL-Fit, mean values were plotted against drug concentration (in molar) and a sigmoid curve (four-parameter logistic curve) was constructed. The maximal forskolin-induced stimulated conversion is taken as maximum value and the maximal inhibition (usually at drug concentrations 10^−6 M or 10^−5 M) as minimum and these values were fixed during the fitting process. Thus, concentrations of the compound, causing 50% of the maximally obtained inhibition of forskolin-induced cAMP accumulation (EC50), are averaged over several experiments and presented as mean pEC50±SEM. Antagonist potency is assessed by co-incubating cells with a fixed agonist concentration and specified antagonist concentrations. Curve fitting procedures are identical to those used for estimating EC50 values. Thus IC50 values, i.e. the concentration that is able to achieve 50% of maximal antagonism that can be achieved by this compound. IC50 values are corrected using a Cheng-Prussoff equation, correcting it for agonist concentration and EC50 values that is obtained in the same experiment. Thus, Kb=IC50/(1+[agonist]/EC50, agonist).The corresponding pA2 value is −log (Kb). Concentration-response curve fitting allows estimation of pEC50 values and of maximal achievable effect (intrinsic activity or efficacy (ε). A full receptor agonist has ε=1, a full receptor antagonist has ε=0, and a partial receptor agonist has an intermediate intrinsic activity.

[2] = receptor binding, read-out: Dopamine-D2 binding pKi (converted)
[3] = receptor binding, read-out: 5-HT reuptake binding pKi (converted)

T1 sequence (P61169 whole entry): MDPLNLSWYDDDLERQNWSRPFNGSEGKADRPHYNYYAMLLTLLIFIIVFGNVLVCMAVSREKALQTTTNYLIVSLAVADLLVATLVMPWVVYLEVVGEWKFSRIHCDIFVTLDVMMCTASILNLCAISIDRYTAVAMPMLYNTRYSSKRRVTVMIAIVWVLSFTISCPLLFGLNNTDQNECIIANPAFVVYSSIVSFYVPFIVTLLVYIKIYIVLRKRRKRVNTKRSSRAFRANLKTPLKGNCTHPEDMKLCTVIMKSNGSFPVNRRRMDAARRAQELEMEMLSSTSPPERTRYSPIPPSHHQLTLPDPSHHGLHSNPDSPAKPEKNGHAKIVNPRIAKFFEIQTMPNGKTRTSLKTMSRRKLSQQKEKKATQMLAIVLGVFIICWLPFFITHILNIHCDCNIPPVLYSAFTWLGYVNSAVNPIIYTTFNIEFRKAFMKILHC
T3 sequence (P14416 whole entry): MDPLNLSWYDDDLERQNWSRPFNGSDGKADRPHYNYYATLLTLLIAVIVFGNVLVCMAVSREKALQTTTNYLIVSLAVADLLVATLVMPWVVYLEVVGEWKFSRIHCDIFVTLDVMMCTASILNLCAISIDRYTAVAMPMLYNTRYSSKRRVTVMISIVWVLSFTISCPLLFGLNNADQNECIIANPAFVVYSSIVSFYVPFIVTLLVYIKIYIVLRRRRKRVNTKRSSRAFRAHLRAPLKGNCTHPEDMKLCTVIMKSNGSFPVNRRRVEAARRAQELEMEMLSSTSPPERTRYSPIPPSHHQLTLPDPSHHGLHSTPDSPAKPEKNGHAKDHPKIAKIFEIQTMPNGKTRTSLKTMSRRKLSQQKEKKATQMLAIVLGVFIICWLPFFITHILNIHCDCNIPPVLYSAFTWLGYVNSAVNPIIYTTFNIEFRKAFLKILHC
T2 sequence (P31652 whole entry): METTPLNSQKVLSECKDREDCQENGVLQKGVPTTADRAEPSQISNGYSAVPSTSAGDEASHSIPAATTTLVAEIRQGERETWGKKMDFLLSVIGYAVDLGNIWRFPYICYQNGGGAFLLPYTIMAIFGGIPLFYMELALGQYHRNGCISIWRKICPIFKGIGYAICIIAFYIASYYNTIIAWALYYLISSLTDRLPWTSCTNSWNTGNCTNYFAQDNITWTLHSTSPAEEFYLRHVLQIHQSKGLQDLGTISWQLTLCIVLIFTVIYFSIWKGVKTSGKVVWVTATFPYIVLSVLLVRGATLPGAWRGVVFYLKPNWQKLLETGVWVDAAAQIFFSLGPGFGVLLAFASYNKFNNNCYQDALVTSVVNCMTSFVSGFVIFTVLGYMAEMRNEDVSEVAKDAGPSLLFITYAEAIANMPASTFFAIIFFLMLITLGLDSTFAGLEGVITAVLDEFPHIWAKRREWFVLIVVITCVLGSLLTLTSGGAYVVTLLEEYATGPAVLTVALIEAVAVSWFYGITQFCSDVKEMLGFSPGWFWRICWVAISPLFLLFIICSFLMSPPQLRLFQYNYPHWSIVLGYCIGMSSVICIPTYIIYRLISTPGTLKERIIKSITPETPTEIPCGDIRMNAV

Row | Compound | melting point | Ki (dopamine-D2 receptors; [2]) [nM] | Ki (serotonin reuptake sites; [3]) [nM] | Dopamine-D2 cAMP accum ∈ (intrinsic activity) [1] | Ki (dopamine-D2 receptors) [nM] | Ki (serotonin reuptake sites) [nM]
1 | C[C@@H]1CN(c2cccc3[nH]c(=O)oc23)C[C@H](C)N1CCCc1c[nH]c2ccc(F)cc12 (as salt: HCl) [compound 1] | 270 to 275 °C | – | – | – | – | –
2 | CC(CCc1c[nH]c2ccc(F)cc12)N1CCN(c2cccc3c2oc(=O)n3C)CC1 (centres unmarked) (as salt: HCl) [compound 2] | 207 to 209 °C | – | – | – | – | –
3 | CC(CCN1CCN(c2cccc3c2oc(=O)n3C)CC1)c1c[nH]c2ccc(F)cc12 (centres unmarked) (as salt: HCl) [compound 3] | 100 to 140 °C (dec.) | – | – | – | – | –
4 | Cn1cc(CCCN2CCN(c3cccc4c3oc(=O)n4C)CC2)c2cc(F)ccc21 (as salt: HCl) [compound 8] | > 225 °C (dec.) | – | – | – | – | –
5 | C[C@@H]1CN(c2cccc3[nH]c(=O)oc23)C[C@H](C)N1CCCc1c[nH]c2ccc(F)cc12 [compound 1] | – | 20 | 5.01 | 0.13 | – | –
6 | CC(CCc1c[nH]c2ccc(F)cc12)N1CCN(c2cccc3c2oc(=O)n3C)CC1 (centres unmarked) [compound 2] | – | 158 | 1 | – | – | –
7 | CC(CCN1CCN(c2cccc3c2oc(=O)n3C)CC1)c1c[nH]c2ccc(F)cc12 (centres unmarked) [compound 3] | – | 100 | 0.794 | 0.43 | – | –
8 | CC(Cc1c[nH]c2ccc(F)cc12)CN1CCN(c2cccc3c2oc(=O)n3C)CC1 (centres unmarked) [compound 4] | 166 to 168 °C | 7.94 | 2.51 | 0.22 | – | –
9 | Cc1cc(Cl)cc2c(CCCN3CCN(c4cccc5c4oc(=O)n5C)CC3)c[nH]c12 [compound 6] | 159 to 162 °C | – | – | 0.52 | – | –
10 | Cn1cc(CCCN2CCN(c3cccc4c3oc(=O)n4C)CC2)c2cc(Cl)ccc21 [compound 7] | 140 to 142 °C | 200 | 2.51 | 0.15 | – | –
11 | Cn1c(=O)oc2c(N3CCN(CCc4c[nH]c5ccc(F)cc45)CC3)cccc21 [compound 13] | 198 to 200 °C | – | – | 0.22 | 3.98 | 3.16

Now from value to molecule, other results behind:

Row | melting point | Ki (dopamine-D2 receptors; [2]) [nM] | Ki (serotonin reuptake sites; [3]) [nM] | Dopamine-D2 cAMP accum ∈ (intrinsic activity) [1] | Compound | Ki (dopamine-D2 receptors) [nM] | Ki (serotonin reuptake sites) [nM]
12 | 254 to 256 °C | – | – | – | Cn1c(=O)oc2c(N3CCN(CCCCc4c[nH]c5ccc(F)cc45)CC3)cccc21 (as salt: HCl) [compound 11] | – | –
13 | 213 to 215 °C | – | – | – | Cn1c(=O)oc2c(N3CCN(CCCCc4c[nH]c5ccc(C#N)cc45)CC3)cccc21 (as salt: HCl) [compound 12] | – | –
14 | 246 to 249 °C | – | – | – | Cn1c(=O)oc2c(N3CCN(CCCc4c[nH]c5ccc(F)cc45)CC3)cc(F)cc21 (as salt: HCl) [compound 15] | – | –
15 | 100 to 140 °C | – | – | – | CCn1c(=O)oc2c(N3CCN(CCCc4c[nH]c5ccc(F)cc45)CC3)cccc21 (as salt: HCl) [compound 16] | – | –
16 | – | 31.6 | > 10 | 0.44 | Cn1cc(CCCN2CCN(c3cccc4c3oc(=O)n4C)CC2)c2cc(F)ccc21 [compound 8] | – | –
17 | 135 to 137 °C | 79.4 | 7.94 | 0.12 | Cn1c(=O)oc2c(N3CCN(CCCc4c[nH]c5ccc(F)cc45)CC3)cccc21 [compound 9] | – | –
18 | 151 to 152 °C | 126 | 3.98 | 0.66 | Cn1c(=O)oc2c(N3CCN(CCCc4c[nH]c5ccc(C#N)cc45)CC3)cccc21 [compound 10] | – | –
19 | – | 25.1 | > 10 | 0.72 | Cn1c(=O)oc2c(N3CCN(CCCCc4c[nH]c5ccc(F)cc45)CC3)cccc21 [compound 11] | – | –
20 | – | 7.94 | < 1 | 0.75 | Cn1c(=O)oc2c(N3CCN(CCCCc4c[nH]c5ccc(C#N)cc45)CC3)cccc21 [compound 12] | – | –
21 | – | 79.4 | 0.316 | – | Cn1c(=O)oc2c(N3CCN(CCCc4c[nH]c5ccc(F)cc45)CC3)cc(F)cc21 [compound 15] | – | –
22 | – | 39.8 | < 1 | 0.15 | CCn1c(=O)oc2c(N3CCN(CCCc4c[nH]c5ccc(F)cc45)CC3)cccc21 [compound 16] | – | –
23 | 238 to 240 °C (dec.) | 15.8 | 5.01 | 0.32 | Fc1ccc2[nH]cc(CCCN3CCN(c4cccc5[nH]c(=S)oc45)CC3)c2c1 [compound 17] | – | –
